# Test results reported in patent publication US20140309229A1, “METHODS FOR SELECTING AND TREATING CANCER IN PATIENTS WITH IGF-1R/IR INHIBITORS” (priority 2011, published 2014).
# Columns and labels:
# Experiment in all cases: MTS proliferation assay
# Assay type in all cases: cell-based, human
# [1] = test system: LS-123
# Procedure: (§1) Cell lines and in vitro cytotoxicity assay. Cells were maintained at 37° C. under standard cell culture conditions. Cells were plated at an optimized density for each cell line per well in 96-well microtiter FALCON® plates, incubated overnight, and then exposed to a serial dilution of drug. […] The results were expressed as an IC50, which is the drug concentration required to inhibit cell proliferation to 50% of that of untreated control cells. The mean IC50 and standard deviation (SD) from multiple tests for each cell line were calculated.
# (§2) In vitro Cellular Proliferation Assays.
# [2] = test system: COLO-678
# Procedure: as §1, §2
# [3] = test system: NCI-H716
# Procedure: as §1, §2
# [4] = test system: SW480
# Procedure: as §1, §2
# [5] = test system: DIFI
# Procedure: as §1, §2
# [6] = test system: COLO320DM
# Procedure: as §1, §2
# [7] = test system: COLO-201
# Procedure: as §1, §2
# [8] = test system: GP2D
# Procedure: as §1, §2
# [9] = test system: WIDR
# Procedure: as §1, §2
# [10] = test system: COLO-320-HSR
# Procedure: as §1, §2
# [11] = test system: RKO PM
# Procedure: as §1, §2
# [12] = test system: CCD18CO
# Procedure: as §1, §2
# [13] = test system: LS-180
# Procedure: as §1, §2
# [14] = test system: SW403
# Procedure: as §1, §2
compound,measurement,setting,value
"C[C@@]1(C(=O)Nc2ccc(F)nc2)CCCN1c1nc(Nc2cc(C3CC3)n[nH]2)c2cccn2n1 [BMS-754807, (2S)-1-(4-((5-cyclopropyl-1H-pyrazol-3-yl)amino)pyrrolo[2,1-f][1,2,4]triazin-2-yl)-N-(6-fluoro-3-pyridinyl)-2-methyl-2-pyrrolidinecarboxamide]",IC50,"[1]; Homo sapiens, LS-123, 72 h",4470 nM
same,Sensitivity to BMS-754807,"[1]; LS123, preliminary panel of 45 CRC cell lines",Resistant (resistant cell lines had IC50 values of >50 nmol/L)
same,Sensitivity Classes,[1]; LS-123,R (“R” refers Resistant)
same,Sensitivity Classes,[2]; COLO-678,R (“R” refers Resistant)
same,IC50,"[2]; Homo sapiens, COLO-678, 72 h",192 nM
same,IC50,"[3]; Homo sapiens, NCI-H716, 72 h",217 nM
same,Sensitivity Classes,[3]; NCI-H716,R (“R” refers Resistant)
same,Sensitivity to BMS-754807,"[3]; NCI-H716, preliminary panel of 45 CRC cell lines",Intermediate (remaining 30 cell lines classified as Intermediate or resistant)
same,IC50,"[4]; Homo sapiens, SW480, 72 h",4890 nM
same,Sensitivity Classes,[4]; SW480,R (“R” refers Resistant)
same,Sensitivity to BMS-754807,"[4]; SW480, preliminary panel of 45 CRC cell lines",Resistant (resistant cell lines had IC50 values of >50 nmol/L)
same,Sensitivity Classes,[5]; DIFI,S (“S” refers Sensitive)
same,Sensitivity to BMS-754807,"[5]; DIFI, preliminary panel of 45 CRC cell lines",Sensitive (a sensitive cell line was classified as one with an IC50 of ≦50 nmol/L)
same,IC50,"[5]; Homo sapiens, DiFi, 72 h",12 nM
same,Sensitivity Classes,[6]; COLO320DM,S (“S” refers Sensitive)
same,Sensitivity to BMS-754807,"[6]; COLO320DM, preliminary panel of 45 CRC cell lines",Sensitive (a sensitive cell line was classified as one with an IC50 of ≦50 nmol/L)
same,IC50,"[6]; Homo sapiens, COLO 320DM, 72 h",41 nM
same,Sensitivity to BMS-754807,"[7]; COLO201, preliminary panel of 45 CRC cell lines",Resistant (resistant cell lines had IC50 values of >50 nmol/L)
same,Sensitivity Classes,[7]; COLO-201,R (“R” refers Resistant)
same,IC50,"[7]; Homo sapiens, COLO 201, 72 h",2760 nM
same,Sensitivity Classes,[8]; GP2D,R (“R” refers Resistant)
same,IC50,"[8]; Homo sapiens, GP2d, 72 h",261 nM
same,IC50,"[9]; Homo sapiens, WiDr, 72 h",194 nM
same,Sensitivity Classes,[9]; WIDR,R (“R” refers Resistant)
same,Sensitivity to BMS-754807,"[9]; WIDR, preliminary panel of 45 CRC cell lines",Intermediate (remaining 30 cell lines classified as Intermediate or resistant)
same,Sensitivity to BMS-754807,"[10]; COLO320HSR, preliminary panel of 45 CRC cell lines",Sensitive (a sensitive cell line was classified as one with an IC50 of ≦50 nmol/L)
same,Sensitivity Classes,[10]; COLO-320-HSR,S (“S” refers Sensitive)
same,IC50,"[10]; Homo sapiens, COLO-320-HSR, 72 h",35 nM
same,IC50,"[11]; Homo sapiens, 72 h",857 nM
same,Sensitivity Classes,[11]; RKO PM,R (“R” refers Resistant)
same,Sensitivity to BMS-754807,"[11]; RKO PM, preliminary panel of 45 CRC cell lines",Resistant (resistant cell lines had IC50 values of >50 nmol/L)
same,Sensitivity Classes,[12]; CCD18CO,R (“R” refers Resistant)
same,Sensitivity to BMS-754807,"[12]; CCD18CO, preliminary panel of 45 CRC cell lines",Resistant (resistant cell lines had IC50 values of >50 nmol/L)
same,IC50,"[12]; Homo sapiens, CCD-18Co, 72 h",2560 nM
same,IC50,"[13]; Homo sapiens, LS180, 72 h",629 nM
same,Sensitivity to BMS-754807,"[13]; LS180, preliminary panel of 45 CRC cell lines",Resistant (resistant cell lines had IC50 values of >50 nmol/L)
same,Sensitivity Classes,[13]; LS-180,R (“R” refers Resistant)
same,IC50,"[14]; Homo sapiens, SW-403, 72 h",34 nM
same,Sensitivity Classes,[14]; SW403,S (“S” refers Sensitive)
